Measurements reported in patent publication US12564638B2 (SHANGHAITECH UNIVERSITY, priority 2019, dated 2026).
Like-named read-outs stand apart in the source and are kept apart here.

What was measured:
Type in all cases: cell-based
[1] = tested on: PC9 cells (EGFR Exon 19 del, non-small cell lung cancer cells); assay: Cell viability assay (WST/CCK8), PC9 cells; settings: Homo sapiens, PC-9, 72 hours, read-out: IC50 (half inhibitory concentration)
Procedure, shortened: (§1)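 Cells seeded at 3 000/well in RPMI1640 complete medium, dosed next day with compounds (top 10 μM, 3-fold, 10 points) for 72 h. Viability read with WST (CCK8) reagent; DMSO as negative control, EGFR TKIs as positive controls; IC50 determined.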

[2] = tested on: PC9 DCT (Del19+T790M+C797S) cells; assay: Cell viability assay, PC9 cells with EGFR triple mutation; settings: Homo sapiens, PC-9; Table 9; PC9 (Del + T790M + C797S), EGFR triple mutations; read-out: IC50 (half inhibitory concentration)
Source text: Construction of EGFR triple mutant cell line PC9 DCT (Dell9+T790M+C797S): The cDNA expressing human EGFR was cloned into pLVX vector, and exon 19 deletion mutation (746-750) and T790M mutation were introduced by point mutation and C797S mutation. Transferred into PC9 cells by lentiviral packaging. Cells stably expressing EGFR triple mutations were obtained by fluorescence screening.
The cDNA sequence expressing human EGFR was cloned into a pLVX vector (GFP^+), and then introduce the EGFR exon 19 deletion (746-750), exon 20 T790M and C797S mutations by were generated by site-directed mutagenesis. The PC9 cells were infected with lentivirus containing the indicated EGFR mutations, and the cells stably expressing EGFR triple mutation were obtained by fluorescence screening.
All of the half inhibitory concentrations (IC50) of these compounds of the present invention were determined with WST reagent from Fuyuan Biotec Company. The specific experiment procedures are as follows: Cancer cells were planted in 96-well-plate at the density of 3 000 cells per well with 100 μL RPMI1640 completed culture medium. In the next day, compounds with indicated concentrations were added to the cells, DMSO was used as the negative control and the EGFR TKIs were used to treat cells as the positive groups. After 72 hours drug treatment, cell viability was measured by using the WST reagent following the instructions. The growth inhibition curve of the compounds on cells were plotted by Prism GraphPad, and the compounds IC50 calculated from it.
The cell viability assays were taken to determine the anti-tumor activity of these indicated compounds in PC9 cells, which overexpressed Exon 19del+T790M+C797S triple mutant EGFR.

[3] = tested on: BT474 cells (HER2 positive breast cancer cells); assay: Cell viability assay (CCK8), BT474 cells; settings: Homo sapiens, BT-474, Table 10, BT474, 72 hours, read-out: IC50 (half inhibitory concentration)
Procedure, shortened: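 HER2-overexpressing BT474 cells in RPMI1640 were exposed to compounds for 72 hours over 10 concentrations (3-fold dilution, top 10 μM). Viability was measured with CCK8 reagent against a DMSO control, and IC50 was taken from growth inhibition curves.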

[4] = tested on: HCC827 cells (EGFR Exon19 del, non-small cell lung cancer cells); assay: Cell viability assay (WST/CCK8), HCC827 cells; settings: Homo sapiens, HCC827, 72 h, HCC827 (Exon19 Del), 72 hours, read-out: IC50 (half inhibitory concentration)
Procedure, shortened: as §1

[5] = tested on: PC9BracA1 (EGFR Exon 19 del+T790M, non-small cell lung cancer cells); assay: Cell viability assay (WST/CCK8), PC9Brac1 cells; settings: Table 7, canertinib-based compounds; PC9Brca1 (Ex19del + T790M); read-out: IC50 (half inhibitory concentration)
Procedure, shortened: (§2)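 Cells seeded at 3 000 per well in RPMI1640 complete medium, dosed next day with compounds at indicated concentrations (DMSO negative control, EGFR TKIs as positive control).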

[6] = tested on: H1975 (EGFR T790M+L858R mutation, non-small cell lung cancer cell line); assay: Cell viability assay (WST/CCK8), H1975 cells; settings: Homo sapiens, NCI-H1975; Table 7, canertinib-based compounds; H1975 (L858R + T790M); read-out: IC50 (half inhibitory concentration)
Procedure, shortened: as §2

[7] = Table 3, poziotinib-based compounds, PC9 (Exon 19 Del), WST (CCK8)
[8] = Table 3, poziotinib-based compounds, WST (CCK8)
[9] = Table 6, canertinib-based compounds, PC9 (Exon19 Del), WST
[10] = Table 6, canertinib-based compounds, WST

SMILES | IC50 [2] [nM] | IC50 [4, 8] [nM] | other results
COc1cc2ncnc(Nc3ccc(Cl)c(Cl)c3F)c2cc1OC1CCNCC1 [Poziotinib derivative A (SIAIS219149), N-(3,4-dichloro-2-fluorophenyl)-7-methoxy-6-(piperidin-4-yloxy)quinazolin-4-amine] | 5.2 | 7.1 | IC50 [1, 7]: 17 nM; IC50 [3]: 81.2 nM
COc1cc2ncnc(Nc3ccc(Cl)c(Cl)c3F)c2cc1OC1CCN(C(=O)CSc2cccc3c2CN(C2CCC(=O)NC2=O)C3=O)CC1 (stereo not shown) [SIAIS219164, 3-(4-((2-(4-((4-((3,4-dichloro-2-fluorophenyl)amino)-7-methoxyquinazolin-6-yl)oxy)piperidin-1-yl)-2-oxoethyl)thio)-1-oxoisoindolin-2-yl)piperidine-2,6-dione] | 4.8 | 33 | 
COc1cc2ncnc(Nc3ccc(Cl)c(Cl)c3F)c2cc1OC1CCN(C(=O)CCSc2cccc3c2CN(C2CCC(=O)NC2=O)C3=O)CC1 (stereo not shown) [SIAIS219165, 3-(4-((3-(4-((4-((3,4-dichloro-2-fluorophenyl)amino)-7-methoxyquinazolin-6-yl)oxy)piperidin-1-yl)-3-oxopropyl)thio)-1-oxoisoindolin-2-yl)piperidine-2,6-dione] | 4.6 | 23 | IC50 [1, 7]: 3 nM; IC50 [3]: 2.7 nM
COc1cc2ncnc(Nc3ccc(Cl)c(Cl)c3F)c2cc1OC1CCN(C(=O)CCCSc2cccc3c2CN(C2CCC(=O)NC2=O)C3=O)CC1 (stereo not shown) [SIAIS219166, 3-(4-((4-(4-((4-((3,4-dichloro-2-fluorophenyl)amino)-7-methoxyquinazolin-6-yl)oxy)piperidin-1-yl)-4-oxobutyl)thio)-1-oxoisoindolin-2-yl)piperidine-2,6-dione] | 4.6 | 30 | 
COc1cc2ncnc(Nc3ccc(Cl)c(Cl)c3F)c2cc1OC1CCN(C(=O)CCCCSc2cccc3c2CN(C2CCC(=O)NC2=O)C3=O)CC1 (stereo not shown) [SIAIS219167, 3-(4-((5-(4-((4-((3,4-dichloro-2-fluorophenyl)amino)-7-methoxyquinazolin-6-yl)oxy)piperidin-1-yl)-5-oxopentyl)thio)-1-oxoisoindolin-2-yl)piperidine-2,6-dione] | 4.1 | 31 | 
COc1cc2ncnc(Nc3ccc(Cl)c(Cl)c3F)c2cc1OC1CCN(C(=O)CCCCCSc2cccc3c2CN(C2CCC(=O)NC2=O)C3=O)CC1 (stereo not shown) [SIAIS219168, 3-(4-((6-(4-((4-((3,4-dichloro-2-fluorophenyl)amino)-7-methoxyquinazolin-6-yl)oxy)piperidin-1-yl)-6-oxohexyl)thio)-1-oxoisoindolin-2-yl)piperidine-2,6-dione] | 2.9 | 40 | 
COc1cc2ncnc(Nc3ccc(Cl)c(Cl)c3F)c2cc1OC1CCN(C(=O)CCCCCCSc2cccc3c2CN(C2CCC(=O)NC2=O)C3=O)CC1 (stereo not shown) [SIAIS219169, 3-(4-((7-(4-((4-((3,4-dichloro-2-fluorophenyl)amino)-7-methoxyquinazolin-6-yl)oxy)piperidin-1-yl)-7-oxoheptyl)thio)-1-oxoisoindolin-2-yl)piperidine-2,6-dione] | 3.6 | 38 | 
COc1cc2ncnc(Nc3ccc(Cl)c(Cl)c3F)c2cc1OC1CCN(C(=O)CCCNc2cccc3c2C(=O)N(C2CCC(=O)NC2=O)C3=O)CC1 (stereo not shown) [SIAIS219179, 4-((4-(4-((4-((3,4-dichloro-2-fluorophenyl)amino)-7-methoxyquinazolin-6-yl)oxy)piperidin-1-yl)-4-oxobutyl)amino)-2-(2,6-dioxopiperidin-3-yl)isoindoline-1,3-dione] | 3.9 | 20.2 | 
COc1cc2ncnc(Nc3ccc(Cl)c(Cl)c3F)c2cc1OC1CCN(C(=O)CCCCNc2cccc3c2C(=O)N(C2CCC(=O)NC2=O)C3=O)CC1 (stereo not shown) [SIAIS219180, 4-((5-(4-((4-((3,4-dichloro-2-fluorophenyl)amino)-7-methoxyquinazolin-6-yl)oxy)piperidin-1-yl)-5-oxopentyl)amino)-2-(2,6-dioxopiperidin-3-yl)isoindoline-1,3-dione] | 3.3 | 26.7 | 
COc1cc2ncnc(Nc3ccc(Cl)c(Cl)c3F)c2cc1OC1CCN(C(=O)CCCCCNc2cccc3c2C(=O)N(C2CCC(=O)NC2=O)C3=O)CC1 (stereo not shown) [SIAIS219181, 4-((6-(4-((4-((3,4-dichloro-2-fluorophenyl)amino)-7-methoxyquinazolin-6-yl)oxy)piperidin-1-yl)-6-oxohexyl)amino)-2-(2,6-dioxopiperidin-3-yl)isoindoline-1,3-dione] | 3.8 | 23.1 | 
COc1cc2ncnc(Nc3ccc(Cl)c(Cl)c3F)c2cc1OC1CCN(C(=O)CSc2cccc3c2C(=O)N(C2CCC(=O)NC2=O)C3=O)CC1 (stereo not shown) [SIAIS249014, 4-((2-(4-((4-((3,4-dichloro-2-fluorophenyl)amino)-7-methoxyquinazolin-6-yl)oxy)piperidin-1-yl)-2-oxoethyl)thio)-2-(2,6-dioxopiperidin-3-yl)isoindoline-1,3-dione] | 1.8 | 51 | 
COc1cc2ncnc(Nc3ccc(Cl)c(Cl)c3F)c2cc1OC1CCN(C(=O)CCCSc2cccc3c2C(=O)N(C2CCC(=O)NC2=O)C3=O)CC1 (stereo not shown) [SIAIS249016, 4-((4-(4-((4-((3,4-dichloro-2-fluorophenyl)amino)-7-methoxyquinazolin-6-yl)oxy)piperidin-1-yl)-4-oxobutyl)thio)-2-(2,6-dioxopiperidin-3-yl)isoindoline-1,3-dione] | 1.5 | 29 | 
COc1cc2ncnc(Nc3ccc(Cl)c(Cl)c3F)c2cc1OC1CCN(C(=O)CCCCSc2cccc3c2C(=O)N(C2CCC(=O)NC2=O)C3=O)CC1 (stereo not shown) [SIAIS249017, 4-((5-(4-((4-((3,4-dichloro-2-fluorophenyl)amino)-7-methoxyquinazolin-6-yl)oxy)piperidin-1-yl)-5-oxopentyl)thio)-2-(2,6-dioxopiperidin-3-yl)isoindoline-1,3-dione] | 2.2 | 23 | 
C=CC(=O)Nc1cc2c(Nc3ccc(F)c(Cl)c3)ncnc2cc1OCCCN1CCC(N2CCN(C(=O)CCCCCNc3cccc4c3C(=O)N(C3CCC(=O)NC3=O)C4=O)CC2)CC1 (stereo not shown) [SIAIS262178, N-(4-((3-chloro-4-fluorophenyl)amino)-7-(3-(4-(4-(6-((2-(2,6-dioxopiperidin-3-yl)-1,3-dioxoisoindolin-4-yl)amino)hexanoyl)piperazin-1-yl)piperidin-1-yl)propoxy)quinazolin-6-yl)acrylamide] |  |  | IC50 [1, 9]: 0.4 nM; IC50 [5]: 69 nM; IC50 [3]: 2.1 nM; IC50 [4, 10]: 5.2 nM; IC50 [6]: 38 nM
C=CC(=O)Nc1cc2c(Nc3ccc(F)c(Cl)c3)ncnc2cc1OCCCN1CCC(N2CCN(C(=O)CCCCCCNc3cccc4c3C(=O)N(C3CCC(=O)NC3=O)C4=O)CC2)CC1 (stereo not shown) [SIAIS262179, N-(4-((3-chloro-4-fluorophenyl)amino)-7-(3-(4-(4-(7-((2-(2,6-dioxopiperidin-3-yl)-1,3-dioxoisoindolin-4-yl)amino)heptanoyl)piperazin-1-yl)piperidin-1-yl)propoxy)quinazolin-6-yl)acrylamide] |  |  | IC50 [1, 9]: 10.3 nM; IC50 [5]: 181 nM; IC50 [3]: 14.6 nM; IC50 [4, 10]: 2.5 nM; IC50 [6]: 43 nM
